Laboratory results taken from patent US5698552A, “Hetrazepinoid amides” (Boehringer Ingelheim KG, priority 1990, dated 1997).

Tests used:
[1] = system: PAF-induced platelet aggregation; experiment: Inhibition of PAF-induced platelet aggregation in vitro (Born and Cross method); format: cell-based, healthy male and female donors (human); conditions: PAF 5 ×10^-8 M; human platelet-rich plasma (TRP); n=4; read-out: PAF-induced platelet aggregation (inhibition, IC50 = concentration at 50% aggregation inhibition)
Experimental: 200 ml samples of blood were taken from a non-obstructed vein, with the aid of a plastic syringe containing 3.8% sodium citrate solution, from healthy male and female donors aged from 18 to 35 years who had not taken any medicaments (aspirin or other non-steroid anti-inflammatories) for several days before the blood withdrawal. The ratio of sodium citrate solution:blood was 1:9. The citrated blood was centrifuged in plastic tubes at 150 ×g (=1,200 rpm) at room temperature for 20 min (Heraeus Christ bench centrifuge 124).
The platelet aggregation was measured in vitro by the method of Born and Cross (1963), an aggregation inducer (PAF) being added to the TRP, while stirring constantly. For the measurement, 0.8 ml TRP and 0.2 ml modified Tyrode's solution (see below) were introduced into 1 ml plastic cells, each of which contained a small metal pin (stirrer, 1,000 rpm). The test substance was added in a volume of 10 μl for 2 to 3 min before inducing the aggregation. Either DMSO and water or a dilute HCl solution was used as the solvent. The control batches contained the corresponding volume of these solvents. After recording the initial absorption (2-3 min), aggregation was induced. PAF (5 ×10^-8 M; Bachem Feinchemikalien) was introduced into the cell in a volume of 10 μl.
The modified Tyrode's solution had the following composition: 136.9 mM NaCl; 2.68 mM KCl; 0.5 mM MgCl2; 1.8 mM CaCl2; 0.42 mM NaH2 PO4; 5.55 mM glucose and 11.9 mM NaHCO3.
To evaluate substance effects, the maximum of the first aggregation wave was used. The maximum absorption induced by the aggregation inducer (=maximum aggregation=100%) was simultaneously run in a parallel batch (in the 2nd channel of the aggregometer) to each test batch and used as the 100% value. The aggregation value achieved under the action of the test substance was quoted as % of the control value (batch).
Concentration/effect curves with a random sample size of in each case n=4 were plotted with the aid of this method and IC50 values (concentration at 50% aggregation inhibition) were calculated.

PAF receptor = target: T1, PAF receptor (Homo sapiens, UniProt P25105); experiment: 3H-PAF-receptor bonding on human thrombocytes (platelets); format: binding; conditions: method as in European Patent Application 368 175
T1 construct: determined using human thrombocytes; endogenous in cells; host or cells: human thrombocytes (platelets)
Experimental: Then, at 20° C., 18.3 g (0.12 mol) of hydroxybenzotriazole (HOBT), 23.7 g (0.109 mol) of N-4-trifluoromethylbenzyl-N-n-propylamine and 25.6 g (0.125 mol) of dicyclohexyl-carbodiimide (DCCI) and a further 250 ml of dimethylformamide (DMF) were added. The mixture was left to react for 24 hours. It was then cooled to 5° C. and filtered. 500 ml of water were added to the filtrate and it was extracted with ethyl acetate. The combined organic phases were washed with water and saturated sodium hydrogen carbonate solution, dried with magnesium sulphate and filtered over kieselguhr/char-coal. After working up in the usual way, 50 g of colourless crystals of the title compound are obtained by crystallisation from ethanol/diisopropylether (1:1). […] (The method used is described for example in European Patent Application 368 175).

T1 sequence (P25105 whole entry): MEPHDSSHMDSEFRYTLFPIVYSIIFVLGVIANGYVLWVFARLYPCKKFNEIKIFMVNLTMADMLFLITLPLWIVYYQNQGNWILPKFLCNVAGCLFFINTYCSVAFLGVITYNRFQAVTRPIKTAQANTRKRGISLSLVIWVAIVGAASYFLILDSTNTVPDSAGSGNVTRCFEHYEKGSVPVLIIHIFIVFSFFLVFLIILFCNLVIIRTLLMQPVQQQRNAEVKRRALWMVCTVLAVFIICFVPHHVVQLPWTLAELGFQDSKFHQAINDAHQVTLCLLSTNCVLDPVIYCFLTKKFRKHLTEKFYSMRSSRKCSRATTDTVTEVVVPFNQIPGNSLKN

## Cc1nnc2n1-c1sc3c(c1C(c1ccccc1Cl)=NC2)C[C@H](C(=O)N(Cc1ccccc1)Cc1ccccc1)C3 [Example 10, S(--)-3-(Dibenzylaminocarbonyl)-5-(2-chlorophenyl)-10-methyl-7H-cyclopenta[4,5]thieno-[3,2-f][1,2,4]-triazolo-[4,3-a][1,4]diazepine]
[1]
  IC50: 37 nM

## CCCCN(Cc1ccccc1)C(=O)[C@@H]1Cc2sc3c(c2C1)C(c1ccccc1Cl)=NCc1nnc(C)n1-3 [Example 7, S(-)-3-(Benzylbutylaminocarbonyl)-5-(2-chlorophenyl)-10-methyl-7H-cyclopenta[4,5]thieno-[3,2-f][1,2,4]triazolo-[4,3-a][1,4]diazepine]
[1]
  IC50: 84 nM

## CCN(Cc1ccccc1)C(=O)[C@@H]1Cc2sc3c(c2C1)C(c1ccccc1Cl)=NCc1nnc(C)n1-3 [Example 6, S(-)-3-(Benzylethylaminocarbonyl)-5-(2-chlorophenyl)-10-methyl-7H-cyclopenta[4,5]thieno[3,2-f][1,2,4]triazolo-[4,3-a][1,4]diazepine]
[1]
  IC50: 23 nM

## CCCN(Cc1ccccc1)C(=O)[C@@H]1Cc2sc3c(c2C1)C(c1ccccc1Cl)=NCc1nnc(C)n1-3 [Example 2, S(-)-3-(Benzylpropylaminocarbonyl)-5-(2-chlorophenyl)-10-methyl-7H-cyclopenta[4,5]thieno[3,2-f][1,2,4]-triazolo-[4,3-a][1,4]diazepine]
[1]
  IC50: 49 nM

## CCCN(Cc1ccc(C(F)(F)F)cc1)C(=O)[C@@H]1Cc2sc3c(c2C1)C(c1ccccc1Cl)=NCc1nnc(C)n1-3 [Example 18]
PAF receptor
  Ki: 1.8 nM
